Assay results: patent publication US20260306638A1, “COMPOUNDS AND USES THEREOF” (FOGHORN THERAPEUTICS INC., priority 2023, published 2026)

How the values were obtained:
[1] = target: T1, HiBit-BRM fusion protein (Homo sapiens, UniProt P51531); experiment: HiBiT-BRM degradation in a stable HeLa cell line (cell-based degradation assay, Nano-Glo HiBiT Lytic Detection); conditions: HeLa cells, 24 h; for Dmax: human, 30 μM top dose, read-out: BRM HiBit Degradation Maximum
T1 construct: HiBiT; expressed in transfected cells
T1 sequence (P51531 whole entry, the tested form may be a part): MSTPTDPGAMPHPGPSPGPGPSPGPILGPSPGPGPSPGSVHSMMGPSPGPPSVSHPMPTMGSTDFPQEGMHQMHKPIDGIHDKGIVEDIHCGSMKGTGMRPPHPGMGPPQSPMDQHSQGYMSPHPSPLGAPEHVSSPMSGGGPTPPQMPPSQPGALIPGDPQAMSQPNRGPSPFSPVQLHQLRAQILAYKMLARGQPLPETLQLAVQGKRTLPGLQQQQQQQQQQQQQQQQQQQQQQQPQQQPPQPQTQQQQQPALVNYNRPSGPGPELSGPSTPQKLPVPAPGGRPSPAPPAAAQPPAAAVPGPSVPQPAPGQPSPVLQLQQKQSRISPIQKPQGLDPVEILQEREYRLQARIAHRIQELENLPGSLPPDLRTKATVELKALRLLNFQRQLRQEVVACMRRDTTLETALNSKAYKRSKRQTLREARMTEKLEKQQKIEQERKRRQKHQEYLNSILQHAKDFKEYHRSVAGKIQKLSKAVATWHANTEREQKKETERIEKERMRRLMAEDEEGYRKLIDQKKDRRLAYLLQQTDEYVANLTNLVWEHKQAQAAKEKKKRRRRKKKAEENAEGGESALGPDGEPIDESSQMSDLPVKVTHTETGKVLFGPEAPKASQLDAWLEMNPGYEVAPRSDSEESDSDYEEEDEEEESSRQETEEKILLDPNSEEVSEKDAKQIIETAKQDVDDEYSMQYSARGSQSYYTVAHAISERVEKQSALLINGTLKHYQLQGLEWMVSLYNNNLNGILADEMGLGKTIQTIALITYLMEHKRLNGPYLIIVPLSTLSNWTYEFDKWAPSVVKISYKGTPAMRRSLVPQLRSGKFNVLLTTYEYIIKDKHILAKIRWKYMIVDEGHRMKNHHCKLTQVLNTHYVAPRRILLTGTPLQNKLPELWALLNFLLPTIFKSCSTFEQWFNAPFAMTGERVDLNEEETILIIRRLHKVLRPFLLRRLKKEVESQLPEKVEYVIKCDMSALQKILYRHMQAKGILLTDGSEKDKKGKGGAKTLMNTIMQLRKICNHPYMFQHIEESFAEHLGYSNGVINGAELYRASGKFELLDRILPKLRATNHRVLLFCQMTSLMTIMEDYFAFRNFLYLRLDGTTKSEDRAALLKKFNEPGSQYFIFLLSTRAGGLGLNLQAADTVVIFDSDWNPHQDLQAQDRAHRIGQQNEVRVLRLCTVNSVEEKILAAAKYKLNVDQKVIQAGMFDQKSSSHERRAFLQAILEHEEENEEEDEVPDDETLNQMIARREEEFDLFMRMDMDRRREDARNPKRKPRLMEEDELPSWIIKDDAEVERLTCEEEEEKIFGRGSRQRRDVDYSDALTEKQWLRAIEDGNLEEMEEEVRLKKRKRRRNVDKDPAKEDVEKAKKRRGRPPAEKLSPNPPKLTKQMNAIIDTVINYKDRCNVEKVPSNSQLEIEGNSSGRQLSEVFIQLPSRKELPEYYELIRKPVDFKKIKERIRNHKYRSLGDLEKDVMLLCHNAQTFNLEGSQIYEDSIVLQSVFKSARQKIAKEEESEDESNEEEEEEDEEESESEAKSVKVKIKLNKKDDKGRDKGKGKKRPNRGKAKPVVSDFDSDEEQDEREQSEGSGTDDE
Procedure: (§1) Procedure: A stable HeLa cell line expressing HiBiT-BRM was generated. On day 0, 5000 cells were seeded in 40 μL of media into each well of 384-well cell culture plates. On day 1, cells were treated with 120 nL DMSO or 120 nL of 3-fold serially DMSO-diluted compounds (10 points in duplicate with 30 µM as final top dose). Subsequently plates were incubated for 24 h in a standard tissue culture incubator and equilibrated at room temperature for 15 minutes. Nano-Glo HiBiT Lytic Detection System (Promega N3050) reagent was freshly prepared and 20 μl was added to each well. Upon addition of this LgBit-containing reagent, the HiBIT and LgBiT proteins associate to form the luminescent NanoBiT luciferase. The plates were shaken for 10 minutes at room temperature and the bioluminescence read using an En Vision plate reader (PerkinElmer).
(§2) The degradation % was calculated using the following formula: % degradation=100%−100%×(Lumsample−LumLC)/(LumHC−LumLC). DMSO treated cells are employed as High Control (HC) and 2 μM of a known BRM/BRG1 degrader standard treated cells are employed as Low Control (LC).

[2] = target: T2, HiBit-BRG1 fusion protein (Homo sapiens, UniProt P51532); experiment: HiBit-BRG1 degradation in a stable HeLa cell line expressing HiBit-BRG1 and LgBit (cell-based degradation assay); conditions: HeLa cells, 24 h; for Dmax: human, 30 μM top dose, read-out: BRG1 HiBit Degradation Maximum
T2 construct: HiBiT; expressed in transfected cells
T2 sequence (P51532 whole entry, the tested form may be a part): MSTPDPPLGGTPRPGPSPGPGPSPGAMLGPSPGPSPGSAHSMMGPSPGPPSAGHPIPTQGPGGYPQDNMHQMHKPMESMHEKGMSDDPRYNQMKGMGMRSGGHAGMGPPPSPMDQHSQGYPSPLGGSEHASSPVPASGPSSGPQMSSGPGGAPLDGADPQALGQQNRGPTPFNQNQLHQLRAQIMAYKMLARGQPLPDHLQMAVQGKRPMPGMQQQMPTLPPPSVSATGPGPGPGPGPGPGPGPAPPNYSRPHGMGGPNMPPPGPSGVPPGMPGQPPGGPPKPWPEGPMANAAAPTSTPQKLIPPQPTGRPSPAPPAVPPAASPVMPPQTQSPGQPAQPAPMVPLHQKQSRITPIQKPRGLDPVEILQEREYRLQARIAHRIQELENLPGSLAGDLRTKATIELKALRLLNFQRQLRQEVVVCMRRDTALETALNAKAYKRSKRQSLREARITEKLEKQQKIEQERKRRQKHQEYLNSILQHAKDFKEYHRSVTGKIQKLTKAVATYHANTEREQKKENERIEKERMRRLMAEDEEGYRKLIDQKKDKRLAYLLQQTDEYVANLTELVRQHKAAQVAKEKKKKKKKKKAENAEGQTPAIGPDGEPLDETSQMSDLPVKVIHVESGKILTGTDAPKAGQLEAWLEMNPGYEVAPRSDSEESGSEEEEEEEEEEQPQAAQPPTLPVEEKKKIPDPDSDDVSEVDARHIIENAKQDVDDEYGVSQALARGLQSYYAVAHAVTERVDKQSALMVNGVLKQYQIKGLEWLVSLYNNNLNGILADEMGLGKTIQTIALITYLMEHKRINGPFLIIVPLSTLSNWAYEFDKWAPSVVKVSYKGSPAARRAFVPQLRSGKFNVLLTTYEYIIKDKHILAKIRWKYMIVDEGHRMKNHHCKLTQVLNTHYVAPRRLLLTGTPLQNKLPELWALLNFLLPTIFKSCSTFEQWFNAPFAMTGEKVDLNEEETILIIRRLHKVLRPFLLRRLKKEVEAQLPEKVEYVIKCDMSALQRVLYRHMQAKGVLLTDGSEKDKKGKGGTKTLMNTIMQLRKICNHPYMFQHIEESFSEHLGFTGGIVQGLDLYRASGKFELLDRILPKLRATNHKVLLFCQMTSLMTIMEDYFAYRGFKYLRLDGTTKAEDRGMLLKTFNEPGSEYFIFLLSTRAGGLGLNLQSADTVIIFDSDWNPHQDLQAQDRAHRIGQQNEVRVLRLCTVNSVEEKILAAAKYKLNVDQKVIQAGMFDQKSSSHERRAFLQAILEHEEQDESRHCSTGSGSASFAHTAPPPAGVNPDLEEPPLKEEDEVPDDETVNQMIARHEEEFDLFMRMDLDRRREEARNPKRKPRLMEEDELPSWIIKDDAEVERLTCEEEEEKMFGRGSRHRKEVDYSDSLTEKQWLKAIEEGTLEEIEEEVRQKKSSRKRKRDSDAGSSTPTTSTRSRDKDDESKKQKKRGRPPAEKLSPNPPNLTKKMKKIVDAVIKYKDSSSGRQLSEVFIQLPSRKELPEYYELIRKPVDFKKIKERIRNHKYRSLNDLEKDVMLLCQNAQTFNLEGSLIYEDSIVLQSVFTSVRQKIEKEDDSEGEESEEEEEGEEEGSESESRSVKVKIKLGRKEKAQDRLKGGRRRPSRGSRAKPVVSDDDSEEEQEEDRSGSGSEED
Procedure: as §1
For measurement of BRG1 degradation, a stable HeLa cell line expressing HiBit-BRG1 and LgBit was generated. The same protocol as above was then followed.
as §2

DC50 [1] [nM]	Dmax [1] [%]	Dmax [2] [%]	DC50 ([2]; read-out: BRMG1 HiBit Degradation DC50) [nM]	SMILES
< 10	≥ 75	< 50		Cc1ncsc1-c1ccc([C@H](C)NC(=O)[C@@H]2C[C@@H](O)CN2C(=O)[C@@H](c2cc(N3CC4(C3)CN(c3cc5nnc(-c6ccccc6O)cc5n(C)c3=O)C4)no2)C(C)C)cc1 (single isomer, unassigned) [Compound 4]
< 10	≥ 75	< 50		Cc1ncsc1-c1ccc([C@H](C)NC(=O)[C@@H]2C[C@@H](O)CN2C(=O)[C@@H](c2cc(N3CC4(C3)CN(c3ccc5nnc(-c6ccccc6O)cc5n3)C4)no2)C(C)C)cc1 [Compound 1, (2S,4R)-4-hydroxy-1-[(2R)-2-(3-{6-[3-(2-hydroxyphenyl)pyrido[3,2-c]pyridazin-6-yl]-2,6-diazaspiro[3.3]heptan-2-yl}-1,2-oxazol-5-yl)-3-methylbutanoyl]-N-[(1S)-1-[4-(4-methyl-1,3-thiazol-5-yl)phenyl]ethyl]pyrrolidine-2-carboxamide]
< 10	≥ 75	≥ 75	< 10	Cc1ncsc1-c1ccc([C@H](C)NC(=O)[C@@H]2C[C@@H](O)CN2C(=O)[C@H](C(C)C)n2cc(-c3ccc4nnc(-c5ccccc5O)cc4n3)nn2)cc1 [Compound 2, (2S,4R)-4-hydroxy-1-[(2S)-2-{4-[3-(2-hydroxyphenyl)pyrido[3,2-c]pyridazin-6-yl]-1,2,3-triazol-1-yl}-3-methylbutanoyl]-N-[(1S)-1-[4-(4-methyl-1,3-thiazol-5-yl)phenyl]ethyl]pyrrolidine-2-carboxamide]
< 10	≥ 75	< 50		Cc1nc2cc(-c3ccccc3O)nnc2cc1N1CC2(CN(c3cc([C@H](C(=O)N4C[C@H](O)C[C@H]4C(=O)N[C@@H](C)c4ccc(-c5scnc5C)cc4)C(C)C)on3)C2)C1 [Compound 3, (2S,4R)-4-hydroxy-1-[(2R)-2-(3-{6-[3-(2-hydroxyphenyl)-6-methylpyrido[3,2-c]pyridazin-7-yl]-2,6-diazaspiro[3.3]heptan-2-yl}-1,2-oxazol-5-yl)-3-methylbutanoyl]-N-[(1S)-1-[4-(4-methyl-1,3-thiazol-5-yl)phenyl]ethyl]pyrrolidine-2-carboxamide]
